Measurements from article PMC9322950 (Pharmaceutics, 2022).
≈ marks a conversion by molar mass, not a printed value.

Key:
clinical = conditions: human, in vivo
Procedure: All included patients were ≥ 18 years old, diagnosed with an advanced stage breast cancer, and provided written informed consent. Blood samples taken at routinely scheduled visits plus extensive collection over a 10-12 h dosing interval were gathered during the study. Collected samples were centrifuged, and plasma was stored at -80 °C allowing its conservation until drug level measurements. […] Moreover, information was reconciled with data collected in the randomized controlled medication adherence study in a subset of patients. […] The chromatographic separation was performed on a column XSelect HSS T3 2.1 × 75 mm, 3.5 μm (Waters®, Milford, MA, USA) using a mobile phase composed of a gradient of ammonium acetate 2 mM (+0.1 formic acid) and acetonitrile (+0.1 formic acid). […] The method was validated over the clinically relevant concentration range, i.e., from 0.5 to 500 ng/mL. […] One- and two-compartment models with first- or zero-order absorption, potentially including an absorption lag time were tested. Inter-individual variability was modeled exponentially and tested sequentially on all parameters. Additive, proportional, and mixed models for residual error were compared. Potential associations between post hoc individual parameter estimates and demographic or clinical characteristics were first visually explored and then tested in the model. […] The characteristics available for testing their effect on PD parameters were as follows: age, body weight, ALK, BILT, gamma-glutamyltransferase (GGT), albumin, AST, ALT, eGFR, association with fulvestrant, chemotherapy in the previous treatment line, and POCT measurement. […] Baseline values of continuous covariates were tested on the base ANC parameter while time-varying values were tested on Emax. Continuous covariates were centered and normalized on their median value and tested by linear or allometric functions as appropriate. Missing data were imputed to the population median value. Categorical covariates were coded as 0 or 1, and missing data were first treated as an additional category and then regrouped according to their parameter estimates. The first-order conditional estimation method with interaction (FOCEI) was used for model fitting with the ADVAN4 TRANS4 subroutine for the PK model and the ADVAN6 subroutine defining a system of ordinary differential equations for the PK/PD model. Models were selected based on the improvement in standard goodness-of-fit plots, precision of parameter estimates and eta shrinkage. […] The covariate analysis was performed by forward inclusion (significant level for ΔOFV ≤ -3.84, p ≤ 0.05) followed by backward deletion (significant level for ΔOFV ≥ 7.88, p ≤ 0.005). The final PK/PD model was evaluated with a non-parametric bootstrap using 502 replicates of the initial dataset. The generated median parameters and their CI95% were compared to the final model estimates. In addition, prediction-corrected visual predictive checks (pc-VPCs) were performed to diagnose potential model misspecification by visually comparing observed concentrations with prediction percentiles.

[1] = tested on: absolute neutrophil count (ANC); test: Semi-mechanistic PK/PD neutropenia model (exposure–toxicity relationship, ANC time course); format: in vivo, human; conditions: for Emax (maximum estimated drug effect on kprol) / ωEC50 (between-subject variability) / ωEmax (between-subject variability): final PK/PD model
Procedure: ANC was directly retrieved from the patients' medical records up to the date of the last PK observation. The most recent ANC value in the three months before palbociclib initiation was retained as the base value. Blood sampling for ANC measurement was performed either concomitantly or separately from that for palbociclib quantification. The proliferation, maturation, and homeostatic regulation of neutrophils were mimicked by a series of 5 compartments, as described in the model developed by Friberg et al.. This structural model was directly applied to our data. The first compartment represented stem cells and proliferating precursor cells in the bone marrow with the systematic renewal of proliferative cells' production modeled by the rate constant kprol. This compartment was followed by three transit compartments to account for the delay between proliferation and maturation according to the first-order rate constant ktr, defined as n+1/MTT , where MTT is the mean transit time of neutrophils. The last compartment characterized the blood circulation with the neutrophil elimination rate constant kcirc. The rate constants kprol, ktr, and […] assumed to be equal, as in the original model. […] ANCs were log-transformed before the analysis, and an additive error on the log scale was used to describe residual variability. Owing to long computation runtime, neutropenia model development was first performed by fixing the PK parameters that were estimated together with PD parameters in the final model. Potential associations between post hoc individual parameter estimates and demographic or clinical characteristics were first visually explored and then tested in the model. […] The characteristics available for testing their effect on PD parameters were as follows: age, body weight, ALK, BILT, gamma-glutamyltransferase (GGT), albumin, AST, ALT, eGFR, association with fulvestrant, chemotherapy in the previous treatment line, and POCT measurement. […] Despite high inter-individual variability on EC50, covariates were not tested on this parameter and were substituted by covariates on Emax as recommended in good practices for exposure-response analyses. Baseline values of continuous covariates were tested on the base ANC parameter while time-varying values were tested on Emax. Continuous covariates were centered and normalized on their median value and tested by linear or allometric functions as appropriate. Missing data were imputed to the population median value. Categorical covariates were coded as 0 or 1, and missing data were first treated as an additional category and then regrouped according to their parameter estimates. The first-order conditional estimation method with interaction (FOCEI) was used for model fitting with the ADVAN4 TRANS4 subroutine for the PK model and the ADVAN6 subroutine defining a system of ordinary differential equations for the PK/PD model. Models were selected based on the improvement in standard goodness-of-fit plots, precision of parameter estimates and eta shrinkage. […] The covariate analysis was performed by forward inclusion (significant level for ΔOFV ≤ -3.84, p ≤ 0.05) followed by backward deletion (significant level for ΔOFV ≥ 7.88, p ≤ 0.005). The final PK/PD model was evaluated with a non-parametric bootstrap using 502 replicates of the initial dataset. The generated median parameters and their CI95% were compared to the final model estimates. In addition, prediction-corrected visual predictive checks (pc-VPCs) were performed to diagnose potential model misspecification by visually comparing observed concentrations with prediction percentiles.

[2] = Exposure–response relationship: Cox proportional hazards models on progression-free survival; format: in vivo, human; conditions: human, plasma, oral; model-predicted, including OFF-treatment periods; read-out: median AUCcum90 (mean cumulative AUC0-24 over 90 days)
Source text: (§1) To consider the time lapse between radiologic exams (i.e., every 3 months), mean cumulative AUC0-24 over 90 days (AUCcum90) was then predicted. This variable was selected as the exposure metric to be tested as a time-dependent covariate for its influence on PFS. In consideration of the limited number of patients progressing (n = 29), we only included age at treatment initiation as an additional covariate, with an interaction term between age and exposure. Cox proportional hazards models were estimated in R (2021) to evaluate the effect of these covariates on PFS (significance level: p ≤ 0.05).

metastatic breast cancer = test: as above; format: in vivo, human; conditions: 29 of 44 patients progressed
Source text: as §1

[3] = tested on: absolute neutrophil count (ANC); conditions: cited from earlier work
[4] = co-administration of PPIs in fasting conditions, healthy volunteers; cited from earlier work
[5] = based on PK/PD modeling; cited from earlier work
[6] = tested on: absolute neutrophil count (ANC); conditions: final PK/PD model, FIX at literature value; cited from earlier work
[7] = bootstrap median (n = 502 samples)

CC(=O)c1c(C)c2cnc(Nc3ccc(N4CCNCC4)cn3)nc2n(C2CCCC2)c1=O [palbociclib, Palbociclib]
ALAG (absorption lag time) (clinical): 2.0 h | ALAG (absorption lag-time) (clinical): 1.9 h | CL (clearance) (clinical): 68 L/h | CLIPP,no food (clearance with concomitant coadministration of IPP under fasting conditions) (clinical): 106 L/h | Vc (central volume of distribution) (clinical): 2730 L | Vc/F (apparent central volume of distribution) (clinical): 2778 L | clearance (clinical; CL (clearance)): 1130 mL/min | clearance (clinical; CLIPP,no food (clearance with concomitant coadministration of IPP under fasting conditions)): 1770 mL/min | Vd (clinical; Vc (central volume of distribution)): 2700 L | Vd/F (clinical; Vc/F (apparent central volume of distribution)): 2800 L | EC50 ([1]; Homo sapiens, Neutrophil, base model, attributed to data sparseness, not retained, read-out: estimated EC50 (Emax model, before fixing)): 0.0088 mg/L (≈ 0.0197 µM) | Emax (maximum estimated drug effect on kprol) [1, 7]: 0.22 | ωEC50 (between-subject variability) [1, 7]: 91 CV% | ωEmax (between-subject variability) [1, 7]: 16 CV% | Emax (maximum estimated drug effect on kprol) ([1]; estimate): 0.22 | ωEC50 (between-subject variability) ([1]; estimate): 93 CV% | ωEmax (between-subject variability) ([1]; estimate): 15 CV% | mean cumulative AUC0-24 over 90 days (AUCcum90) [2]: 1.15 µg·h/mL | median PFS (metastatic breast cancer): 17 months | EC50 literature value [3]: 0.0401 mg/L (≈ 0.0896 µM) | decrease in AUC [4]: 62% | upper limit for trough concentration to avoid severe neutropenia [5]: 100 ng/mL | EC50 (palbociclib concentration corresponding to 50% of the maximum effect) [6]: 0.0401 mg/L
